Data as given in patent publication US20170029841A1, “METHODS AND COMPOSITIONS FOR SELECTIVE REGULATION OF PROTEIN EXPRESSION” (priority 2015, published 2017).

Test system: maize tissue pools (tassel, ear, leaf, root, stem)
Assay: siRNA profiling microarray assay of mts-siRNA sequences across maize tissues
Conditions: for 01DKD2 V8-V9 Tassel relative signal value: germplasm 01DKD2, V8-V9 tassel; for 01DKD2 V10-V12 Tassel relative signal value: germplasm 01DKD2, V10-V12 tassel; for 01DKD2 Other Tissue relative signal value: germplasm 01DKD2, combined signals from other tissue; for LH244 V8-V9 Tassel relative signal value: germplasm LH244, V8-V9 tassel; for LH244 V10-V12 Tassel relative signal value: germplasm LH244, V10-V12 tassel; for LH244 Other Tissue relative signal value: germplasm LH244, combined signals from other tissue
Protocol: A siRNA profiling microarray assay was performed using μParaflo® Microfluidics chips provided by LC Sciences LLC (Houston, Tex., USA) with 1,200 sequences selected from the thousands of mts-siRNA sequences identified from the differential bioinformatic analysis. The microarray chips contained triplicate probes of the complementary sequence for each of the 1,200 mts-siRNA sequences. Total RNA was purified from 26 maize tissue pools (duplicate or triplicate tissue pools) from either LH244 (ATCC deposit number PTA-1173) or 01DKD2 (I294213) (ATCC deposit number PTA-7859) inbred plants. Each of the 26 RNA samples were hybridized with the microarray chips that contain probes for the 1,200 mts-siRNA. Hybridization images were collected using a GenePix® 4000B laser scanner (Molecular Devices, Sunnyvale, Calif.) and digitized using Array-Pro® Analyzer image analysis software (Media Cybernetics, Rockville, Md.). Relative signal values were derived by background subtraction and normalization. Differentially expressed signals were determined by t-test with p<0.05. From the microarray analysis, about 500 mts-siRNA from the 1,200 were identified as being highly tassel-specific.
Selected mts-siRNA sequences aligning to one of the six cDNA sequences were used for further microarray analysis to determine differential expression across maize tissues. Microarray analysis for mts-siRNA sequences of normalized signal values for V8-V9 tassel, V10-V12 tassel, or combined signals from the other tissue for maize germplasm LH244 and 01DKD2 is presented in Tables 3-10. […] Signal value results are measured as relative signal values and standard error (p<0.05) is represented by (STDR). […] The mts-siRNA sequence corresponds to the sense or antisense strand of the corresponding mts-siRNA target sequence in the cDNA sequence. The mts-siRNA sequence may have a single nucleotide, a two nucleotide, or a three nucleotide mismatch with the aligned portion of the cDNA sequence, and the mts-siRNA sequence may align to the sense strand or antisense strand of the cDNA sequence. The mts-siRNA sequences provided here are found across different maize germplasms.

For “SEQ ID NO: 37: mts-siRNA sequence aligning to cDNA SEQ ID NO: 18 (CAGAGGATGGCGATATGCACGTTG; expressed or natural sequence)”, the “01DKD2 V8-V9 Tassel relative signal value” was 9.5, the “01DKD2 V10-V12 Tassel relative signal value” was 1224.5 and the “01DKD2 Other Tissue relative signal value” was 3.3. For the same substance, the “LH244 V8-V9 Tassel relative signal value” was 554, the “LH244 V10-V12 Tassel relative signal value” was 553 and the “LH244 Other Tissue relative signal value” was 1.5.
In the case of “SEQ ID NO: 63: mts-siRNA sequence aligning to cDNA SEQ ID NO: 21 (TAGATCACTCGGGTCGCCACA; expressed or natural sequence)”, the “01DKD2 V8-V9 Tassel relative signal value” is reported as 14.5, the “01DKD2 V10-V12 Tassel relative signal value” is reported as 18 and the “01DKD2 Other Tissue relative signal value” is reported as 1.5. The “LH244 V8-V9 Tassel relative signal value” was 34.5, the “LH244 V10-V12 Tassel relative signal value” was 11.7 and the “LH244 Other Tissue relative signal value” was 3.2.
In the case of “SEQ ID NO: 62: mts-siRNA sequence aligning to cDNA SEQ ID NO: 21 (CAAATGAGTCATCGAAGCTGT; expressed or natural sequence)”, the “01DKD2 V8-V9 Tassel relative signal value” is reported as 13.5, the “01DKD2 V10-V12 Tassel relative signal value” is reported as 15.5 and the “01DKD2 Other Tissue relative signal value” is reported as 1. For the same substance, the “LH244 V8-V9 Tassel relative signal value” was 44.5, the “LH244 V10-V12 Tassel relative signal value” was 11.3 and the “LH244 Other Tissue relative signal value” was 1.8.
With “SEQ ID NO: 40: mts-siRNA sequence aligning to cDNA SEQ ID NO: 18 (CCTTGCGCCTTAACTATCGTGC; expressed or natural sequence)” the “01DKD2 V8-V9 Tassel relative signal value” was 7.5, the “01DKD2 V10-V12 Tassel relative signal value” was 452 and the “01DKD2 Other Tissue relative signal value” was 2.8. For the same substance, the “LH244 V8-V9 Tassel relative signal value” was 119, the “LH244 V10-V12 Tassel relative signal value” was 448.7 and the “LH244 Other Tissue relative signal value” was 1.5.
“SEQ ID NO: 64: mts-siRNA sequence aligning to cDNA SEQ ID NO: 21 (GCATATATGTGATGAAGACCG; expressed or natural sequence)” was tested, and the “01DKD2 V8-V9 Tassel relative signal value” was 13.5, the “01DKD2 V10-V12 Tassel relative signal value” was 9 and the “01DKD2 Other Tissue relative signal value” was 1.3. For the same substance, the “LH244 V8-V9 Tassel relative signal value” was 23, the “LH244 V10-V12 Tassel relative signal value” was 13.7 and the “LH244 Other Tissue relative signal value” was 1.8.
“SEQ ID NO: 58: mts-siRNA sequence aligning to cDNA SEQ ID NO: 20 (CGAGGTACCAACTAACATCGGT; expressed or natural sequence)” was tested, and the “01DKD2 V8-V9 Tassel relative signal value” was 88.5, the “01DKD2 V10-V12 Tassel relative signal value” was 327 and the “01DKD2 Other Tissue relative signal value” was 2. For the same substance, the “LH244 V8-V9 Tassel relative signal value” was 215.5, the “LH244 V10-V12 Tassel relative signal value” was 349 and the “LH244 Other Tissue relative signal value” was 0.7.
With “SEQ ID NO: 46: mts-siRNA sequence aligning to cDNA SEQ ID NO: 19 (CAGCTAATACGACGACCATTTAGG; expressed or natural sequence)” the “01DKD2 V8-V9 Tassel relative signal value” was 252, the “01DKD2 V10-V12 Tassel relative signal value” was 6778 and the “01DKD2 Other Tissue relative signal value” was 6.8. For the same substance, the “LH244 V8-V9 Tassel relative signal value” was 4502.5, the “LH244 V10-V12 Tassel relative signal value” was 8663.3 and the “LH244 Other Tissue relative signal value” was 8.4.
For “SEQ ID NO: 84: mts-siRNA sequence aligning to cDNA SEQ ID NO: 22 (AAGAAGGTGCTTGTTGTC; expressed or natural sequence)”, the “01DKD2 V8-V9 Tassel relative signal value” was 0, the “01DKD2 V10-V12 Tassel relative signal value” was 20 and the “01DKD2 Other Tissue relative signal value” was 1. The “LH244 V8-V9 Tassel relative signal value” was 13, the “LH244 V10-V12 Tassel relative signal value” was 35.7 and the “LH244 Other Tissue relative signal value” was 4.4.
“SEQ ID NO: 32: mts-siRNA sequence aligning to cDNA SEQ ID NO: 18 (TAGCCACACGGTCACGTTTGGAC; expressed or natural sequence)” was tested, and the “01DKD2 V8-V9 Tassel relative signal value” was 7.5, the “01DKD2 V10-V12 Tassel relative signal value” was 516 and the “01DKD2 Other Tissue relative signal value” was 2.8. The “LH244 V8-V9 Tassel relative signal value” was 376.5, the “LH244 V10-V12 Tassel relative signal value” was 118 and the “LH244 Other Tissue relative signal value” was 2.
For “SEQ ID NO: 79: mts-siRNA sequence aligning to cDNA SEQ ID NO: 22 (CAAGGCAAGAAGGTGCTTGTTGTCC; expressed or natural sequence)”, the “01DKD2 V8-V9 Tassel relative signal value” was 5, the “01DKD2 V10-V12 Tassel relative signal value” was 290.5 and the “01DKD2 Other Tissue relative signal value” was 2. For the same substance, the “LH244 V8-V9 Tassel relative signal value” was 197.5, the “LH244 V10-V12 Tassel relative signal value” was 269.3 and the “LH244 Other Tissue relative signal value” was 1.9.
In the case of “SEQ ID NO: 68: mts-siRNA sequence aligning to cDNA SEQ ID NO: 21 (GAACAGTGATTTTATGAGCAA; expressed or natural sequence)”, the “01DKD2 V8-V9 Tassel relative signal value” is reported as 98, the “01DKD2 V10-V12 Tassel relative signal value” is reported as 96 and the “01DKD2 Other Tissue relative signal value” is reported as 2.5. The “LH244 V8-V9 Tassel relative signal value” was 265, the “LH244 V10-V12 Tassel relative signal value” was 85.3 and the “LH244 Other Tissue relative signal value” was 5.
With “SEQ ID NO: 55: mts-siRNA sequence aligning to cDNA SEQ ID NO: 20 (CGGACATTTGCAGTTCTATGGT; expressed or natural sequence)” the “01DKD2 V8-V9 Tassel relative signal value” was 73, the “01DKD2 V10-V12 Tassel relative signal value” was 405.5 and the “01DKD2 Other Tissue relative signal value” was 1. For the same substance, the “LH244 V8-V9 Tassel relative signal value” was 377.5, the “LH244 V10-V12 Tassel relative signal value” was 581.7 and the “LH244 Other Tissue relative signal value” was 1.1.
With “SEQ ID NO: 36: mts-siRNA sequence aligning to cDNA SEQ ID NO: 18 (CGTGCATATCGCCATCCTCTGCT; expressed or natural sequence)” the “01DKD2 V8-V9 Tassel relative signal value” was 15.5, the “01DKD2 V10-V12 Tassel relative signal value” was 1225.5 and the “01DKD2 Other Tissue relative signal value” was 4.3. The “LH244 V8-V9 Tassel relative signal value” was 906.5, the “LH244 V10-V12 Tassel relative signal value” was 606.7 and the “LH244 Other Tissue relative signal value” was 2.2.
“SEQ ID NO: 82: mts-siRNA sequence aligning to cDNA SEQ ID NO: 22 (AGGCCTCCCTTCCCTATGGTAGCC; expressed or natural sequence)” was tested, and the “01DKD2 V8-V9 Tassel relative signal value” was 71.5, the “01DKD2 V10-V12 Tassel relative signal value” was 211 and the “01DKD2 Other Tissue relative signal value” was 54.8. For the same substance, the “LH244 V8-V9 Tassel relative signal value” was 95.5, the “LH244 V10-V12 Tassel relative signal value” was 137 and the “LH244 Other Tissue relative signal value” was 217.4.
With “SEQ ID NO: 26: mts-siRNA sequence aligning to cDNA SEQ ID NO: 17 (CGCATGTCACATCGCCGTCCTC; expressed or natural sequence)” the “01DKD2 V8-V9 Tassel relative signal value” was 10, the “01DKD2 V10-V12 Tassel relative signal value” was 104 and the “01DKD2 Other Tissue relative signal value” was 3.8. For the same substance, the “LH244 V8-V9 Tassel relative signal value” was 55.5, the “LH244 V10-V12 Tassel relative signal value” was 175.7 and the “LH244 Other Tissue relative signal value” was 3.8.
With “SEQ ID NO: 47: mts-siRNA sequence aligning to cDNA SEQ ID NO: 19 (TGGTGTGGTCGTTAGCTACTTTA; expressed or natural sequence)” the “01DKD2 V8-V9 Tassel relative signal value” was 12.5, the “01DKD2 V10-V12 Tassel relative signal value” was 1051.5 and the “01DKD2 Other Tissue relative signal value” was 4. For the same substance, the “LH244 V8-V9 Tassel relative signal value” was 157.5, the “LH244 V10-V12 Tassel relative signal value” was 900.7 and the “LH244 Other Tissue relative signal value” was 15.5.
In the case of “SEQ ID NO: 87: mts-siRNA sequence aligning to cDNA SEQ ID NO: 22 (ACCAAGGATGTCGTCACCACCAAT; expressed or natural sequence)”, the “01DKD2 V8-V9 Tassel relative signal value” is reported as 25, the “01DKD2 V10-V12 Tassel relative signal value” is reported as 91.5 and the “01DKD2 Other Tissue relative signal value” is reported as 2.5. For the same substance, the “LH244 V8-V9 Tassel relative signal value” was 56, the “LH244 V10-V12 Tassel relative signal value” was 104 and the “LH244 Other Tissue relative signal value” was 4.7.
“SEQ ID NO: 74: mts-siRNA sequence aligning to cDNA SEQ ID NO: 22 (AGGCCTCCCTTCCCTATG; expressed or natural sequence)” was tested, and the “01DKD2 V8-V9 Tassel relative signal value” was 43.5, the “01DKD2 V10-V12 Tassel relative signal value” was 171 and the “01DKD2 Other Tissue relative signal value” was 45.8. The “LH244 V8-V9 Tassel relative signal value” was 83.5, the “LH244 V10-V12 Tassel relative signal value” was 129 and the “LH244 Other Tissue relative signal value” was 164.2.
In the case of “SEQ ID NO: 28: mts-siRNA sequence aligning to cDNA SEQ ID NO: 17 (GACATTTGCAGTTCTATGGTGT; expressed or natural sequence)”, the “01DKD2 V8-V9 Tassel relative signal value” is reported as 29, the “01DKD2 V10-V12 Tassel relative signal value” is reported as 134.5 and the “01DKD2 Other Tissue relative signal value” is reported as 3.8. For the same substance, the “LH244 V8-V9 Tassel relative signal value” was 126.5, the “LH244 V10-V12 Tassel relative signal value” was 248 and the “LH244 Other Tissue relative signal value” was 2.4.
For “SEQ ID NO: 59: mts-siRNA sequence aligning to cDNA SEQ ID NO: 20 (ATGCCAAAGGTACCGATGTTAG; expressed or natural sequence)”, the “01DKD2 V8-V9 Tassel relative signal value” was 202, the “01DKD2 V10-V12 Tassel relative signal value” was 811.5 and the “01DKD2 Other Tissue relative signal value” was 0.3. The “LH244 V8-V9 Tassel relative signal value” was 789, the “LH244 V10-V12 Tassel relative signal value” was 1262.7 and the “LH244 Other Tissue relative signal value” was 4.1.
